≈ marks a conversion by molar mass, not a printed value.
Assays:
[1] = molecular target: T1, tyrosinase from A. terreus; conditions: 50 mM L-tyrosine, Tris-HCl pH 7.0, 37 °C; 2 h preincubation with inhibitor at 30 °C
T1 construct: gene TYR

[2] = molecular target: T2, tyrosinase from P. copticola; conditions: 50 mM L-tyrosine, Tris-HCl pH 7.0, 37 °C; 2 h preincubation with inhibitor at 30 °C; P. copticola not named in the value sentence, inferred as the second of the two enzymes
T2 construct: gene TYR

IC50 [1]: 21.5 µg/mL (≈ 151 µM) | IC50 [2]: 15.1 µg/mL (≈ 106 µM)
Compound: O=c1cc(CO)occ1O [kojic acid]
